According to ChEMBL document CHEMBL6115026, “Synthesis and Biological Evaluation of Peripheral 5HT2B Antagonists for Liver Fibrosis” (J Med Chem, 2025):
Calls of active or inactive are those of the source. The rule behind the calls is not given here.

Tests used:
[1] = target: T1, 5-hydroxytryptamine receptor 2B (Homo sapiens, UniProt P41595); assay: Antagonist activity at 5HT2B (unknown origin) expressed in FRT cells co-expressing ANO1 and YFP assessed as inhibition of 5HT-induced increase in iodide influx at 1 uM preincubated with compound for 10 mins followed by 5-HT addition and measured after 8 sec by YFP fluorescence quenching analysis relative to control; format: cell-based; details: time 608.0 sec
[2] = target: T1, 5-hydroxytryptamine receptor 2B; assay: Binding affinity to 5-HT2B (unknown origin)
[3] = target: T1, 5-hydroxytryptamine receptor 2B; assay: Binding affinity to 5-HT2B (unknown origin) assessed as inhibition constant by receptor binding assay
[4] = Metabolic stability in human liver microsomes assessed as parent compound remaining measured after 30 mins in presence of NADPH by LC-MS/MS analysis; format: ADME, Microsome; details: read-out: Stability
[5] = Cytotoxicity against mouse NIH3T3 cells assessed as reduction in cell viability incubated for 24 hrs by EZ-CYTOX cell viability assay; format: toxicity, cell-based
CYP2D6 = CYP2D6 (Homo sapiens, UniProt P10635); assay: Inhibition of CYP2D6 (unknown origin) at 1 uM preincubated for 10 mins followed by NADPH addition and measured after 20 mins by luminescence based microplate reader analysis relative to control; format: ADME; details: time 30 min
Mus musculus [6] = assay: Antifibrotic activity in CCl4-induced male C57BL/6J mouse model of liver fibrosis assessed as reduction in fibrotic deposition in liver at 10 to 30 mg/kg, ip co-administered daily with CCl4 for 4 weeks by H and E staining based analysis; format: functional, organism-based; details: dose 10-30 mg/kg
Mus musculus [7] = assay: Antifibrotic activity in CCl4-induced male C57BL/6J mouse model of liver fibrosis assessed as downregulation of Timp1 gene expression at 10 to 30 mg/kg, ip co-administered daily with CCl4 for 4 weeks by RT-PCR analysis; format: functional, organism-based; details: dose 10-30 mg/kg
Mus musculus [8] = assay: Antifibrotic activity in CCl4-induced male C57BL/6J mouse model of liver fibrosis assessed as reduction in sirius red positive area in liver at 10 to 30 mg/kg, ip co-administered daily with CCl4 for 4 weeks by sirius red staining based analysis; format: functional, organism-based; details: dose 10-30 mg/kg
[9] = Cytotoxicity against mouse L929 cells assessed as reduction in cell viability incubated for 24 hrs by EZ-CYTOX cell viability assay; format: toxicity, cell-based
Mus musculus [10] = assay: Antifibrotic activity in CCl4-induced male C57BL/6J mouse model of liver fibrosis assessed as downregulation of Col1a1 gene expression at 10 to 30 mg/kg, ip co-administered daily with CCl4 for 4 weeks by RT-PCR analysis; format: functional, organism-based; details: dose 10-30 mg/kg
[11] = Cytotoxicity against CHO-K1 cells assessed as reduction in cell viability incubated for 24 hrs by EZ-CYTOX cell viability assay; format: toxicity, cell-based, Cricetulus griseus; details: Chinese hamster
Mus musculus [12] = assay: Antifibrotic activity in CCl4-induced male C57BL/6J mouse model of liver fibrosis assessed as reduction in fibrotic deposition in liver at 10 to 30 mg/kg, ip co-administered daily with CCl4 for 4 weeks by masson's trichrome staining based analysis; format: functional, organism-based; details: dose 10-30 mg/kg
Mus musculus [13] = assay: Antifibrotic activity in CCl4-induced male C57BL/6J mouse model of liver fibrosis assessed as downregulation of alpha-SMA gene expression at 10 to 30 mg/kg, ip co-administered daily with CCl4 for 4 weeks by RT-PCR analysis; format: functional, organism-based; details: dose 10-30 mg/kg
Mus musculus [14] = assay: Antifibrotic activity in CCl4-induced male C57BL/6J mouse model of liver fibrosis assessed as downregulation of Col3a1 gene expression at 10 to 30 mg/kg, ip co-administered daily with CCl4 for 4 weeks by RT-PCR analysis; format: functional, organism-based; details: dose 10-30 mg/kg
[15] = target: T1, 5-hydroxytryptamine receptor 2B; assay: Antagonist activity at 5HT2B (unknown origin) expressed in FRT cells co-expressing ANO1 and YFP assessed as inhibition of 5HT-induced increase in iodide influx preincubated with compound for 10 mins followed by 5-HT addition and measured after 8 sec by YFP fluorescence quenching analysis; format: cell-based
Mus musculus [16] = assay: Antifibrotic activity in CCl4-induced male C57BL/6J mouse model of liver fibrosis assessed as reduction in hydroxyproline level in liver at 10 to 30 mg/kg, ip co-administered daily with CCl4 for 4 weeks; format: functional, organism-based; details: dose 10-30 mg/kg
Mus musculus [17] = assay: Antifibrotic activity in CCl4-induced male C57BL/6J mouse model of liver fibrosis assessed as reduction in fibrotic deposition in liver at 10 to 30 mg/kg, ip co-administered daily with CCl4 for 4 weeks by sirius red staining based analysis; format: functional, organism-based; details: dose 10-30 mg/kg
hERG (KCNH2) = hERG (KCNH2) (Homo sapiens, UniProt Q12809); assay: Inhibition of human ERG at 10 uM incubated for 2 hrs by fluorescence polarization assay relative to control; format: toxicity
[18] = Clearance in male ICR mouse at 2 mg/kg, iv measured after 24 hrs by LC-MS/MS analysis; format: ADME, organism-based; details: in vivo
[19] = Cytotoxicity against HFL1 cells assessed as reduction in cell viability incubated for 24 hrs by EZ-CYTOX cell viability assay; format: toxicity, cell-based; details: human
Mus musculus [20] = assay: Antifibrotic activity in CCl4-induced male C57BL/6J mouse model of liver fibrosis assessed as reduction in plasma total bilirubin level at 10 to 30 mg/kg, ip co-administered daily with CCl4 for 4 weeks by enzymatic colorimetric analysis; format: functional, organism-based; details: dose 10-30 mg/kg
[21] = Toxicity in CCl4-induced male C57BL/6J mouse model of liver fibrosis assessed as effect on liver gross morphology at 10 to 30 mg/kg, ip co-administered daily with CCl4 for 4 weeks; format: organism-based; details: in vivo, 672 h, dose 10-30 mg/kg
[22] = Volume of distribution at steady state in male ICR mouse at 2 mg/kg, iv measured after 24 hrs by LC-MS/MS analysis; format: ADME, organism-based; details: in vivo, read-out: Vdss
[23] = AUC (0 to t) in male ICR mouse at 2 mg/kg, iv measured after 24 hrs by LC-MS/MS analysis; format: ADME, organism-based; details: in vivo
CYP2C9 = CYP2C9 (Homo sapiens, UniProt P11712); assay: Inhibition of CYP2C9 (unknown origin) at 1 uM preincubated for 10 mins followed by NADPH addition and measured after 20 mins by luminescence based microplate reader analysis relative to control; format: ADME; details: time 30 min
[24] = Metabolic stability in rat liver microsomes assessed as parent compound remaining measured after 30 mins in presence of NADPH by LC-MS/MS analysis; format: ADME, Microsome; details: read-out: Stability
Mus musculus [25] = assay: Antifibrotic activity in CCl4-induced male C57BL/6J mouse model of liver fibrosis assessed as reduction in plasma AST level at 10 to 30 mg/kg, ip co-administered daily with CCl4 for 4 weeks by enzymatic colorimetric analysis; format: functional, organism-based; details: dose 10-30 mg/kg
[26] = Half-life in male ICR mouse at 2 mg/kg, iv measured after 24 hrs by LC-MS/MS analysis; format: ADME, organism-based; details: in vivo
CYP3A4 = CYP3A4 (Homo sapiens, UniProt P08684); assay: Inhibition of CYP3A4 (unknown origin) at 1 uM preincubated for 10 mins followed by NADPH addition and measured after 20 mins by luminescence based microplate reader analysis relative to control; format: ADME; details: time 30 min
[27] = Drug concentration in male mouse plasma at 5 mg/kg, ip measured after 0.5 hrs by LC-MS/MS analysis; format: ADME, organism-based
CYP2C19 = CYP2C19 (Homo sapiens, UniProt P33261); assay: Inhibition of CYP2C19 (unknown origin) at 1 uM preincubated for 10 mins followed by NADPH addition and measured after 20 mins by luminescence based microplate reader analysis relative to control; format: ADME; details: time 30 min
[28] = target: 5-hydroxytryptamine receptor 2A (Homo sapiens) (UniProt P28223); assay: Inhibition of 5-HT2A (unknown origin) at 1 uM relative to control
[29] = Metabolic stability in mouse liver microsomes assessed as parent compound remaining measured after 30 mins in presence of NADPH by LC-MS/MS analysis; format: ADME, Microsome; details: read-out: Stability
CYP1A2 = target: T2, CYP1A2 (Homo sapiens, UniProt P05177); assay: Inhibition of CYP1A2 (unknown origin) at 1 uM preincubated for 10 mins followed by NADPH addition and measured after 20 mins by luminescence based microplate reader analysis relative to control; format: ADME; details: time 30 min
T2 sequence (P05177 whole entry): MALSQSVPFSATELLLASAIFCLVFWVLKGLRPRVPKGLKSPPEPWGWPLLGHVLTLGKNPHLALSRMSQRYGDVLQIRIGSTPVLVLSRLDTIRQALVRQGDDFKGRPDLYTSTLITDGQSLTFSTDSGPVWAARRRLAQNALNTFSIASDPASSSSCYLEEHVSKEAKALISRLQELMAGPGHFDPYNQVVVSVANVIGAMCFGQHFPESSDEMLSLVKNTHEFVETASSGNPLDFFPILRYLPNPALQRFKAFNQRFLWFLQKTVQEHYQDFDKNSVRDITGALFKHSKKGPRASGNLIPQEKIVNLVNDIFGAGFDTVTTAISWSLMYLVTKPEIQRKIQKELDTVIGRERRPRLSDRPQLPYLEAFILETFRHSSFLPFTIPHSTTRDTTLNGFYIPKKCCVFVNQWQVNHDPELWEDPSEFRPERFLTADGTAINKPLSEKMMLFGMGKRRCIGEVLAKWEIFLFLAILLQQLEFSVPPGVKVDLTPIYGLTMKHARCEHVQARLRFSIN

[30] = Drug concentration in male mouse brain at 5 mg/kg, ip measured after 0.5 hrs by LC-MS/MS analysis; format: ADME, organism-based; details: read-out: Ct
[31] = Cytotoxicity against African green monkey Vero cells assessed as reduction in cell viability incubated for 24 hrs by EZ-CYTOX cell viability assay; format: toxicity, cell-based, Chlorocebus sabaeus
Mus musculus [32] = assay: Antifibrotic activity in CCl4-induced male C57BL/6J mouse model of liver fibrosis assessed as reduction in plasma ALT level at 10 to 30 mg/kg, ip co-administered daily with CCl4 for 4 weeks by enzymatic colorimetric analysis; format: functional, organism-based; details: dose 10-30 mg/kg
Mus musculus [33] = assay: Antifibrotic activity in CCl4-induced male C57BL/6J mouse model of liver fibrosis assessed as reduction in fibrosis be measuring fibrotic stage at 10 to 30 mg/kg, ip co-administered daily with CCl4 for 4 weeks; format: functional, organism-based; details: dose 10-30 mg/kg

T1 sequence (P41595 whole entry): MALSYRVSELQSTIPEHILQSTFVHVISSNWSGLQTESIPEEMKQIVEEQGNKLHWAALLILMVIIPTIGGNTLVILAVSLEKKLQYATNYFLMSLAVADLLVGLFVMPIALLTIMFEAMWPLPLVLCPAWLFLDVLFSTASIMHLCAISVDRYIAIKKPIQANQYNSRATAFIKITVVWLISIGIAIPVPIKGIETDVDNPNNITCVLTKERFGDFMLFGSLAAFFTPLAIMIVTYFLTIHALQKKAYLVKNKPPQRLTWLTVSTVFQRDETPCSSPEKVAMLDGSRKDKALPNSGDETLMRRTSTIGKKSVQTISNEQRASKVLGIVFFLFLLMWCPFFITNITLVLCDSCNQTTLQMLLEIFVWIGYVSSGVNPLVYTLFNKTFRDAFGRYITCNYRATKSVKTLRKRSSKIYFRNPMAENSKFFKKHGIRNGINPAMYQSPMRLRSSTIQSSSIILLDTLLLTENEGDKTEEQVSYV
Sequence of CYP2D6 (P10635 whole entry): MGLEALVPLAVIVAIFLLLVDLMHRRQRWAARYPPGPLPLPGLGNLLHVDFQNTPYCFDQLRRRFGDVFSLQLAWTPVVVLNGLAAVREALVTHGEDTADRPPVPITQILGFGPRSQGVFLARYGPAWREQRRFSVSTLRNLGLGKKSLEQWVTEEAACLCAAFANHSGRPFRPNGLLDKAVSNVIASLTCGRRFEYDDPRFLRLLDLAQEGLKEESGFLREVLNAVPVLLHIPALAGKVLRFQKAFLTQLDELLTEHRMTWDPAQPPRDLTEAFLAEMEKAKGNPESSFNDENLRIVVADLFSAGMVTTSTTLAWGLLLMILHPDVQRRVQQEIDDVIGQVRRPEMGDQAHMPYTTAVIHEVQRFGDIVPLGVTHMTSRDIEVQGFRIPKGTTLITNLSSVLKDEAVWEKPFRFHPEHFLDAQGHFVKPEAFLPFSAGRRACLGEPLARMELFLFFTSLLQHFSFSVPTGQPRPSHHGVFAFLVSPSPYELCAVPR
Sequence of 5-hydroxytryptamine receptor 2A (Homo sapiens) (P28223 whole entry): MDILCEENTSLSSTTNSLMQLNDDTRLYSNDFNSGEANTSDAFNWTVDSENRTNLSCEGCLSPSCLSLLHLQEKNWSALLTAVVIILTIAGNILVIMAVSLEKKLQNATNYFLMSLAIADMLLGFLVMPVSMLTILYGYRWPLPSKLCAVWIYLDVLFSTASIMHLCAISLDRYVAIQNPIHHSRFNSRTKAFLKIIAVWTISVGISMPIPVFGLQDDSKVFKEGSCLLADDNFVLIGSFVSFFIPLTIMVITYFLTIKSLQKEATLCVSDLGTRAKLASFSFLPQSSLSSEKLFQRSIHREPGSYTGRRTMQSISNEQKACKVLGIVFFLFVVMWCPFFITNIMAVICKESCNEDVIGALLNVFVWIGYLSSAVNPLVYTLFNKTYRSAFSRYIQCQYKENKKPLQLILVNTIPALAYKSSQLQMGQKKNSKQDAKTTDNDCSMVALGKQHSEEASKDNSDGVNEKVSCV
Sequence of hERG (KCNH2) (Q12809 whole entry): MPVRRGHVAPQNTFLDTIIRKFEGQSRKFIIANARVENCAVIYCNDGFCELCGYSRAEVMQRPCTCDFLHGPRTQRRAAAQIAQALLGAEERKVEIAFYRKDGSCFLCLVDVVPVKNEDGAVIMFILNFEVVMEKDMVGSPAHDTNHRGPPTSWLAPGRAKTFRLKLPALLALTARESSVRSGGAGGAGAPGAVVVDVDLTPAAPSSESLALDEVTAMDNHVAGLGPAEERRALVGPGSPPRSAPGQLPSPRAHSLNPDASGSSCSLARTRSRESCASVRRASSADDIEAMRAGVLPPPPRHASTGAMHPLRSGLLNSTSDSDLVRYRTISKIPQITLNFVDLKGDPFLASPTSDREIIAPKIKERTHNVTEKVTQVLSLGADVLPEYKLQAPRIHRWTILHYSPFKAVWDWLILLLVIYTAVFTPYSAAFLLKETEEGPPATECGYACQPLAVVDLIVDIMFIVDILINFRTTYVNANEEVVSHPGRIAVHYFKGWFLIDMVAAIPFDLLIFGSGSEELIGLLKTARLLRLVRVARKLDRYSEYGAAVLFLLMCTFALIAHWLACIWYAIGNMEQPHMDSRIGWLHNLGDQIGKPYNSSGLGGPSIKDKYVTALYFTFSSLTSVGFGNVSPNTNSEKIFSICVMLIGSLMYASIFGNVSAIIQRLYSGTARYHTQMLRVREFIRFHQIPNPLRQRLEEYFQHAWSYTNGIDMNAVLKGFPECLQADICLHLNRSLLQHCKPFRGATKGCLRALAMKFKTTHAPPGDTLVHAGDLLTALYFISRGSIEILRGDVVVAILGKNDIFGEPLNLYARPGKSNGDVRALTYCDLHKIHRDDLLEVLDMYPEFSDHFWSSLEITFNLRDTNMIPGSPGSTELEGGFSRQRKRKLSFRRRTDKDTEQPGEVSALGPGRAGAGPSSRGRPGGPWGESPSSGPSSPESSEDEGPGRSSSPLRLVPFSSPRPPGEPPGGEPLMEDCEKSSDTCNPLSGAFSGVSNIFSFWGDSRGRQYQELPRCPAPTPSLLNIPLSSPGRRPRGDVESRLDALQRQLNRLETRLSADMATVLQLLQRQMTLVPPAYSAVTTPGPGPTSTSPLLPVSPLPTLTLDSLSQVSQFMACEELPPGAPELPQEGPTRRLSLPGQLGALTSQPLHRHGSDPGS
Sequence of CYP2C9 (P11712 whole entry): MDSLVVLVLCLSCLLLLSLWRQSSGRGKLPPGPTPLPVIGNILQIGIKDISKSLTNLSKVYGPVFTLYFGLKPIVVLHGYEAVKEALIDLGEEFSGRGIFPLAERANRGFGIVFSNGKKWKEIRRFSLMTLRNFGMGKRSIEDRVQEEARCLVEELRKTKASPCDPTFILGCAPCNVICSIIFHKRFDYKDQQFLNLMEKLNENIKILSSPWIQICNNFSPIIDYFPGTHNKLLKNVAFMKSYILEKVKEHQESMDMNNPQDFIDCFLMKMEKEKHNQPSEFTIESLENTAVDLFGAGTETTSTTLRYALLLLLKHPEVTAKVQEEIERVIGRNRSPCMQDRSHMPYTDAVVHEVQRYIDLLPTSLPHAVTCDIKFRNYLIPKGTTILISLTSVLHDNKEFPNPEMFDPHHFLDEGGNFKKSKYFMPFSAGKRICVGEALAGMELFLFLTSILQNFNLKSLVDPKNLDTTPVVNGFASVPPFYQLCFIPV
Sequence of CYP3A4 (P08684 whole entry): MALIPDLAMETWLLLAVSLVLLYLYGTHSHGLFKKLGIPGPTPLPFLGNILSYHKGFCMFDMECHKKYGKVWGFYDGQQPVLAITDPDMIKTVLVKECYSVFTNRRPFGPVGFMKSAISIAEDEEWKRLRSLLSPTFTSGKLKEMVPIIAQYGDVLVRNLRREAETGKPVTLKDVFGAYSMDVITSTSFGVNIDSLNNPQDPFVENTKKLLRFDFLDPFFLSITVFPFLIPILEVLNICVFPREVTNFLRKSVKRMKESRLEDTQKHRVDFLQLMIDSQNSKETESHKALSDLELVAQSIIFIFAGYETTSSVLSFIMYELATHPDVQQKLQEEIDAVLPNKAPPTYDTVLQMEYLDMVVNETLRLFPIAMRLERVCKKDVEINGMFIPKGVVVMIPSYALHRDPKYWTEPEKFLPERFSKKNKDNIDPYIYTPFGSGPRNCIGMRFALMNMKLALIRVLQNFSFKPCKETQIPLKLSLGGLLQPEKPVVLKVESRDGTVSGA
Sequence of CYP2C19 (P33261 whole entry): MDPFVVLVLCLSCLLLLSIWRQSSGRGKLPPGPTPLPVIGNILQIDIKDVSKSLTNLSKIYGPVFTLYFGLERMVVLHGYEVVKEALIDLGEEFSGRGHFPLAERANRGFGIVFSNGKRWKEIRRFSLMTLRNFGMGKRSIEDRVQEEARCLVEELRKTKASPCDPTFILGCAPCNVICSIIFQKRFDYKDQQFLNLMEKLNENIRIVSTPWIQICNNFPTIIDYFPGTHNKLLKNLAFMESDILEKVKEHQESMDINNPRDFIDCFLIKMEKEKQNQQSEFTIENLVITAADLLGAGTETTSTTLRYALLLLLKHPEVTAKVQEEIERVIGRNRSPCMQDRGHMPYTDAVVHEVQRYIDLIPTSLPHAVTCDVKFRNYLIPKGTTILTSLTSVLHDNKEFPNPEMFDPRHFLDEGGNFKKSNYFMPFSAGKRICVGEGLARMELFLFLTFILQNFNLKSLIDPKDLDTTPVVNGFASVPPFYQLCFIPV

COc1ccc(S(=O)(=O)N[C@H]2CCNC2)cc1C(=O)Nc1ccccc1Cl
inhibition ([1]; filed as antagonist): 93.7%

C[C@@H]1CN(C(=N)NCc2ccccc2)N=C1c1cccc(Cl)c1O
IC50 [2]: < 1 nM

COc1ccc(S(=O)(=O)N[C@H]2CCOC2)cc1C(=O)Nc1ccccc1N
inhibition [1]: 32.8%

NCC(=O)NCCN1CCN(CCCN2c3ccccc3Sc3ccc(C(F)(F)F)cc32)CC1
Ki [3]: 5.2 nM

COc1ccc(S(=O)(=O)N[C@@H]2CCNC2)cc1C(=O)Nc1ccccc1Cl
inhibition ([1]; filed as antagonist): 97.8%

COc1ccc(S(=O)(=O)N[C@H]2CCOC2)cc1C(=O)Nc1ccccc1NC(=O)OC(C)(C)C
inhibition [1]: 20.1%

COc1ccc(S(=O)(=O)N[C@H]2CCN(C(=O)CC[C@H](N)C(=O)O)C2)cc1C(=O)Nc1ccccc1Cl.Cl
remaining at 0.5 h [4]: 97.6%
IC50 at 24 h [5]: > 100000 nM
inhibition at 20 min, 1 µM (CYP2D6): < 1%
Activity (Mus musculus [6]): Active
Activity (Mus musculus [7]): Active
Activity (Mus musculus [8]): Active
IC50 at 24 h [9]: > 100000 nM
Activity (Mus musculus [10]): Active
IC50 at 24 h [11]: > 100000 nM
Activity (Mus musculus [12]): Active
inhibition ([1]; filed as antagonist): 102%
Activity (Mus musculus [13]): Active
Activity (Mus musculus [14]): Active
IC50 [15]: 1.09 nM
Activity (Mus musculus [16]): Active
Activity (Mus musculus [17]): Active
inhibition at 2 h, 10 µM (hERG (KCNH2)): 18.6%
clearance [18]: 34.5 mL/min/kg
IC50 at 24 h [19]: > 100000 nM
Activity (Mus musculus [20]): Active
Activity [21]: Non-toxic
Vd [22]: 1.93 L/kg
AUC(0-t) at 24 h [23]: 810 ng·h/mL
inhibition at 20 min, 1 µM (CYP2C9): < 1%
remaining at 0.5 h [24]: 94.7%
Activity (Mus musculus [25]): Active
half-life [26]: 1.02 h
inhibition at 20 min, 1 µM (CYP3A4): 33.8%
concentration at 0.5 h [27]: 440 ng/mL
inhibition at 20 min, 1 µM (CYP2C19): 17.6%
inhibition [28]: -9.88%
remaining at 0.5 h [29]: 91.6%
inhibition at 20 min, 1 µM (CYP1A2): < 1%
concentration at 0.5 h [30]: < 31.3 ng/g
IC50 at 24 h [31]: > 100000 nM
Activity (Mus musculus [32]): Active
Activity (Mus musculus [33]): Active

COc1ccc(S(=O)(=O)N[C@H]2CCN(C(=O)[C@@H](N)CCC(=O)O)C2)cc1C(=O)Nc1ccccc1Cl
inhibition ([1]; filed as antagonist): 94.5%
IC50 [15]: 7.22 nM

COc1ccc(S(=O)(=O)N[C@H]2CCN(C(=O)OC(C)(C)C)C2)cc1C(=O)Nc1ccccc1Cl
inhibition ([1]; filed as antagonist): 96.1%
